# Data: publication PMC5244392, “Interspecies cathelicidin comparison reveals divergence in antimicrobial activity, TLR modulation, chemokine induction and regulation of phagocytosis” (Scientific Reports, 2017)
# Tests used:
# [1] = tested on: E. coli ATCC 25922 and S. aureus ATCC 29213; assay: Bacterial growth delay, additional strains (Supplementary Fig. S1); format: cell-based, Escherichia coli; Staphylococcus aureus; conditions: E. coli ATCC 25922 and S. aureus ATCC 29213 compared with E. coli O78 and MRSA; MHB or DMEM + FCS; N = 2
# Description: E. coli O78 (Zoetis Animal Health, Kalamazoo, MI, USA), E. coli ATCC 25922, Staphylococcus aureus ATCC 29213, and methicillin resistant Staphylococcus aureus (MRSA) (WKZ-2, human clinical isolate) were grown overnight from a glycerol stock in Mueller Hinton Broth (MHB) (Becton Dickinson, USA). Before use, bacteria were grown to mid-log phase in MHB for 2 hours at 37 °C, 200 RPM. Murine RAW264.7 macrophages (ATCC-TIB-71) were obtained from the American Type Culture Collection (ATCC, Manassas, VA, USA) and cultured in DMEM (41966-029; Thermo Fisher Scientific, Waltham, MA, USA) supplemented with 10% FCS (Bodinco B.V., Alkmaar, the Netherlands) (DMEM + FCS) at 37 °C, 5.0% CO2. […]
# Peptides (0.63 to 40 μM) and bacteria mid-log cultures (2 * 10^6 CFU/ml) were prepared in MHB or DMEM + FCS and mixed (100 μl peptide + 100 μl bacterial culture) in a Bioscreen C analyzer plate (Oy Growth Curves Ab Ltd, Helsingfors, Finland). […] The OD was measured every 15 minutes using a wideband filter (450–580 nm) to measure bacterial growth. The time needed grow above an OD of 0.6 was determined for all concentrations. […]
# E. coli ATCC 25922 and S. aureus ATCC 29213 (1x10^6 CFU/ml) were grown in MHB or DMEM+FCS for 16 hours under constant shak ing (200 RPM) in the presence of diﬀerent concentration of cathelicidins (0.31 µM, 0.63 µM, 1.25 µM, 2.5 µM, 5 µM, 10 µM, and 20 µM). The OD was measured ever y 15 minutes. […]
# E. coli O78 = assay: Sytox green membrane leakage assay; format: cell-based, Escherichia coli; conditions: 30 min at 37 °C, MHB or DMEM + FCS, peptide 0.31-20 μM; N = 3
# Description: Peptide dilutions and bacteria suspensions were prepared as described above for testing the antimicrobial activity in the Bioscreen C analyzer. Peptide dilutions and bacteria were mixed 1:1 and incubated for 30 minutes at 37 °C. Next, bacteria were washed once with PBS and transferred to black 96-wells assay plates (Corning, OH, USA). Bacteria were incubated with […] sytox green (Life technologies) (λex 504 nm and λem 523 nm) for 5 minutes after which fluorescence was measured using a FLUOstar Omega microplate reader (BMG Labtech GmbH, Ortenberg, Germany).
# The capacity of peptides to induce membrane leakage was tested using the permeability marker sytox green. […] For MRSA, fluorescence levels were generally very low even at >Cmax levels, hampering a good comparison between growth delay and permeabilization for this strain.
# Supplementary Figure 2: Bacterial membrane leakage
# E. Coli O78 and MRSA (1x10^6 CFU/ml) were grown in MHB or DMEM+FCS for 30 minutes at 37°C in the presence of diﬀerent concentrations of cathelicidins (0.31 µM, 0.63 µM, 1.25 µM, 2.5 µM, 5 µM, 10 µM, and 20 µM), after which the cells were stained with sytox green to measure membrane leakage. E. Coli in MHB, dark green line; E. Coli in DMEM, light green line; MRSA in MHB, dark blue line; MRSA in DMEM, light blue line. Results are presented as average +/- SEM (N = 3).
# Peptide concentration (µ M) […]
sequence,measurement,setting,value
"RRRPRPPYLPRPRPPPFFPPRLPPRIPPGFPPRFPPRFP [PR-39, porcine proline-rich cathelicidin forming a polyproline helix, 39 residues, charge +10]",Fold difference in Cmax with other bacterial strains,[1],8–16 fold
same,"Membrane permeability (sytox green fluorescence), in words",E. coli O78,minimal permeability
